Assay results reported in the Kinase Knowledgebase extract (Sharma et al. 2016).

Columns and labels:
[1] = tested on: EGFR (human), P00533 [L747-S752del, P753S]; conditions: 10.0 µM
[2] = tested on: EGFR (Human), P00533 [T790M/L858R]; conditions: 10.0 µM
[3] = tested on: EGFR (human), P00533 [S752-I759del]; conditions: 10.0 µM
[4] = biological target: EGFR (human) (UniProt P00533); conditions: for activity: 10.0 µM
[5] = tested on: EGFR (human), P00533 [G719C]; conditions: 10.0 µM
[6] = tested on: EGFR (human), P00533 [L861Q]; conditions: 10.0 µM
[7] = tested on: EGFR (human), P00533 [L747-T751del,Sins]; conditions: 10.0 µM
[8] = tested on: EGFR (human), P00533 [G719S]; conditions: 10.0 µM
[9] = tested on: EGFR (human), P00533 [L747-E749del, A750P]; conditions: 10.0 µM
[10] = tested on: EGFR (human), P00533 [E746-A750del]; conditions: 10.0 µM
[11] = tested on: EGFR (human), P00533 [T790M]; conditions: 10.0 µM
[12] = tested on: EGFR (human), P00533 [L858R]; conditions: 10.0 µM
[13] = tested on: PIK3CA (human), P42336 [C420R]; assay: Enzyme Assay; conditions: 10.0 µM
[14] = tested on: PIK3CA (human), P42336 [H1047Y]; assay: Enzyme Assay; conditions: 10.0 µM
[15] = tested on: PIK3CA (human), P42336 [M1043I]; assay: Enzyme Assay; conditions: 10.0 µM
[16] = tested on: PIK3CA (human), P42336 [H1047L]; assay: Enzyme Assay; conditions: 10.0 µM
[17] = biological target: PIK3CG (human) (UniProt P48736); assay: Enzyme Assay; conditions: 10.0 µM
[18] = tested on: PIK3CA (human), P42336 [E545K]; assay: Enzyme Assay; conditions: 10.0 µM
[19] = tested on: PIK3CA (human), P42336 [E545A]; assay: Enzyme Assay; conditions: 10.0 µM
[20] = biological target: MAPK14 (human) (UniProt Q16539); assay: Enzyme Assay; conditions: for activity: 10.0 µM
[21] = biological target: CDK2 (human) (UniProt P24941); assay: Enzyme Assay; conditions: for activity: 10.0 µM
[22] = tested on: PIK3CA (human), P42336 [I800L]; assay: Enzyme Assay; conditions: 10.0 µM
[23] = tested on: PIK3CA (human), P42336 [Q546K]; assay: Enzyme Assay; conditions: 10.0 µM
[24] = biological target: PIK3CD (Human) (UniProt O00329); assay: Enzyme Assay; conditions: 10.0 µM
[25] = biological target: PIK3CA (human) (UniProt P42336); assay: Enzyme Assay; conditions: 10.0 µM
[26] = biological target: PIK3CB (Human) (UniProt P42338); assay: Enzyme Assay; conditions: 10.0 µM
[27] = tested on: PIK3CA (human), P42336 [E542K]; assay: Enzyme Assay; conditions: 10.0 µM
[28] = biological target: ROCK2 (human) (UniProt O75116); assay: Enzyme Assay; conditions: 10.0 µM

MAPK14 (human), sequence (Q16539 whole entry, looked up): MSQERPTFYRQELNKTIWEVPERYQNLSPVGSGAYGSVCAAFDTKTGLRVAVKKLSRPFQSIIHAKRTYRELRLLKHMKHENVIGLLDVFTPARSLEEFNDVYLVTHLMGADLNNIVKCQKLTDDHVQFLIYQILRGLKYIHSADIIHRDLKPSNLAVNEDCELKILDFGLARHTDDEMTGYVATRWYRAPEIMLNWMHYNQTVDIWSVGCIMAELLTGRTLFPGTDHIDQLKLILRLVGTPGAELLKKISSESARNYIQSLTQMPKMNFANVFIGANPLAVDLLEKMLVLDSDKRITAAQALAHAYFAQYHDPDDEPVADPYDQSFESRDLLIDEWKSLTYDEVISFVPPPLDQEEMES
PIK3CA (human), P42336 [M1043I], sequence (P42336 whole entry M1043I, looked up): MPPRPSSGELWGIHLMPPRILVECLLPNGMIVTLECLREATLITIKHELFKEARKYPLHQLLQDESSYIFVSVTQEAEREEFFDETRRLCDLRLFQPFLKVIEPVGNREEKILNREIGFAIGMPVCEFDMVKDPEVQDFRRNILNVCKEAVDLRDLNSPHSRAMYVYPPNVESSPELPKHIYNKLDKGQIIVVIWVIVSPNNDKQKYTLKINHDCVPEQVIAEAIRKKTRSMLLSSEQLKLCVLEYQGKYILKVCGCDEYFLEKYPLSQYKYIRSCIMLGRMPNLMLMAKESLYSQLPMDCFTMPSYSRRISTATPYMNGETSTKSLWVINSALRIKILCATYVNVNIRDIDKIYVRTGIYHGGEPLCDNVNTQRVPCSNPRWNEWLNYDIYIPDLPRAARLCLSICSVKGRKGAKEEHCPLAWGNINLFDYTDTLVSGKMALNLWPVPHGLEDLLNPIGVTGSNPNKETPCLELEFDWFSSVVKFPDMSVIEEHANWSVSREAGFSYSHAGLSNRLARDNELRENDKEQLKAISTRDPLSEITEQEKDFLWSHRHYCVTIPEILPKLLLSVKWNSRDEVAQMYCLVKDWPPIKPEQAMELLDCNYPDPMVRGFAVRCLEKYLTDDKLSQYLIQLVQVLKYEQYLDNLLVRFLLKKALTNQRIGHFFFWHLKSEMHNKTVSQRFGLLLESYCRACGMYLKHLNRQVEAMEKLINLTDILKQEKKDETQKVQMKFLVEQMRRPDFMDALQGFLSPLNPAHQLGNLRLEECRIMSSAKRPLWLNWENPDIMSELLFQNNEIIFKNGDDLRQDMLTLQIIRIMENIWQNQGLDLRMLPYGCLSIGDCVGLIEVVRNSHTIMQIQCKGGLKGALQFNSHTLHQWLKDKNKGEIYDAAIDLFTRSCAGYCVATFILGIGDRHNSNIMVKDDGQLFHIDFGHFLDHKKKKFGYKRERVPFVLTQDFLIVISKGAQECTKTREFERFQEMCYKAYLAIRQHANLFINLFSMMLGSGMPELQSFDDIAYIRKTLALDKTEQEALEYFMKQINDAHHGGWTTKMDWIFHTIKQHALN
PIK3CA (human), P42336 [E542K], sequence (P42336 whole entry E542K, looked up): as the sequence (P42336 whole entry M1043I, looked up) above, with E542K, I1043M counted along it
PIK3CA (human), P42336 [H1047Y], sequence (P42336 whole entry H1047Y, looked up): as the sequence (P42336 whole entry M1043I, looked up) above, with I1043M, H1047Y counted along it
PIK3CA (human), P42336 [E545A], sequence (P42336 whole entry E545A, looked up): as the sequence (P42336 whole entry M1043I, looked up) above, with E545A, I1043M counted along it

SMILES: COc1cc2c(Nc3ccc(NC(=O)c4ccccc4)cc3)ncnc2cc1OCCCN1CCOCC1
- activity [1]: 41%
- activity [2]: 85%
- activity [3]: 14%
- activity [4]: 0%
- activity [5]: 0%
- activity [6]: 6%
- activity [7]: 26%
- activity [8]: 0%
- activity [9]: 22%
- activity [10]: 36%
- activity [11]: 42%
- activity [12]: 8%
- activity [13]: 68%
- activity [14]: 24%
- activity [15]: 99%
- activity [16]: 99%
- activity [17]: 100%
- activity [18]: 98%
- activity [19]: 19%
- activity [20]: 100%
- activity [21]: 82%
- activity [22]: 100%
- activity [23]: 17%
- activity [24]: 100%
- activity [25]: 100%
- activity [26]: 81%
- activity [27]: 100%
- activity [28]: 34%

SMILES: O=C(Nc1ccc(OC(F)(F)F)cc1)c1sccc1NCc1ccnc2ccccc12
- IC50 [4]: > 10 µM
- IC50 [21]: > 10 µM

SMILES: Cc1ccc(NC(=O)c2cccc(C(C)(C)C#N)c2)cc1Nc1ccc2ncn(C)c(=O)c2c1
- activity [1]: 19%
- activity [2]: 99%
- activity [3]: 17%
- activity [4]: 37%
- activity [5]: 49%
- activity [6]: 34%
- activity [7]: 14%
- activity [8]: 37%
- activity [9]: 11%
- activity [10]: 15%
- activity [11]: 79%
- activity [12]: 48%
- activity [13]: 100%
- activity [14]: 100%
- activity [15]: 89%
- activity [16]: 100%
- activity [17]: 99%
- activity [18]: 100%
- activity [19]: 89%
- activity [20]: 0%
- activity [21]: 100%
- activity [22]: 100%
- activity [23]: 88%
- activity [24]: 99%
- activity [25]: 100%
- activity [26]: 100%
- activity [27]: 100%
- activity [28]: 80%

SMILES: Cc1ccc(C(=O)Nc2cccc(C(F)(F)F)c2)cc1Nc1nc(-c2cccnc2)nc2c1cnn2C
- IC50 [4]: > 10 µM

SMILES: Cc1csc(-c2nnc(Nc3ccc(Oc4ncccc4-c4ccnc(N)n4)cc3)c3ccccc23)c1
- IC50 [20]: 0.053 µM
